IC50 data for 3 molecules are collected here from ChEMBL document CHEMBL1137239, “Accurate prediction of the relative potencies of members of a series of kinase inhibitors using molecular docking and MM-GBSA scoring” (J Med Chem, 2006).

The structures appear in SMILES notation. pIC50: −log10 of the molar value.

One may read the pIC50 as the negative decadic logarithm of the IC50, by convention in mol/L. Low readings indicate a large IC50, high ones a small IC50.

The experiment deals with T1, Aurora kinase A (Homo sapiens, UniProt O14965).
T1 sequence (O14965 whole entry): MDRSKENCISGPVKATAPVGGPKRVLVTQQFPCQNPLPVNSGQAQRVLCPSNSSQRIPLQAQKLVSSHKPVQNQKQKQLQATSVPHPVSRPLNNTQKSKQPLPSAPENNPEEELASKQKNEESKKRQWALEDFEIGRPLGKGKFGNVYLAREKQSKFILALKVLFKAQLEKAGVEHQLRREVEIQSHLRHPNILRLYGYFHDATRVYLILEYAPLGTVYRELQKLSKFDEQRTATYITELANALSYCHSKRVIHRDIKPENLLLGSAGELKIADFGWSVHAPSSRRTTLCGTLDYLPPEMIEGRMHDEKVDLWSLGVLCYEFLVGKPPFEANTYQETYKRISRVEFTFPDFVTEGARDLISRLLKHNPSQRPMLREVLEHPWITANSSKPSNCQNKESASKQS
Briefly: Inhibition of Aurora A.
Regarding `CCCN(CCC)S(=O)(=O)c1ncc(C(=O)Nc2ncc(Nc3ncnc4cc(OCCCN5CCOCC5)c(OC)cc34)cn2)cn1`, the pIC50 was 5.41. For `COc1cc2c(Nc3cnc(NC(=O)c4ccc(Cc5ccccc5)c(Br)c4)nc3)ncnc2cc1OCCCN1CCOCC1` the value was 7.15; for `COc1cc2c(Nc3cnc(NC(=O)c4ccccc4)nc3)ncnc2cc1OC[C@@H](O)CN1CCCCC1`, 9.10.
